From BindingDB's records for PubMed 35123298 (Comsats University Islamabad, 2022)

Tests used:
[1] = Negative allosteric modulation activity at human P2X4 receptor expressed in human 1321N1 cells assessed as ATP induced calcium response by measuring ATP EC50 at 100 nM
[2] = Negative allosteric modulation activity at human P2X4 receptor expressed in human 1321N1 cells assessed as ATP induced calcium response by measuring ATP EC50 at 200 nM
[3] = Negative allosteric modulation activity at human P2X4 receptor expressed in human 1321N1 cells assessed as ATP induced calcium response by measuring ATP EC50 at 40 nM
[4] = Negative allosteric modulation activity at human P2X7 receptor expressed in human 1321N1 cells assessed as ATP induced calcium response by measuring ATP EC50 at 200 nM
[5] = Negative allosteric modulation activity at human P2X7 receptor expressed in human 1321N1 cells assessed as ATP induced calcium response by measuring ATP EC50 at 100 nM
[6] = Negative allosteric modulation activity at human P2X7 receptor expressed in human 1321N1 cells assessed as ATP induced calcium response by measuring ATP EC50 at 40 nM

| EC50 [1] [µM] | EC50 [2] [µM] | EC50 [3] [µM] | EC50 [4] [nM] | EC50 [5] [µM] | EC50 [6] [µM] | SMILES |
| --- | --- | --- | --- | --- | --- | --- |
| 8.96 | 12.2 | 10.1 | – | – | – | CC(C)c1ccc(NC(=S)NC(=O)C23CC4CC(CC(C4)C2)C3)c(Br)c1 |
| – | – | – | 2190 | 6.08 | 6.62 | O=C(NC(=S)Nc1cccc2cccnc12)C12CC3CC(CC(C3)C1)C2 |
